Test results reported in patent US9012436B2, “Lipid composition” (Diurnal Limited, priority 2008, dated 2015).

Test: Solubilisation capacity of formulation systems for testosterone
Method: The formulation systems as detailed in Table 1 all show significant solubilisation capacity for testosterone (>50 mg/^1) which is at least 100-fold higher than that achievable in aqueous media (<0.3 mg/g^1) and at least 5-fold higher than that achievable in single component lipidic vehicles alone (max.<10 mg/g).
^1N.B: For aqueous systems 1 g=1 mL; for oil systems 1 g=>1 mL

## C[C@]12CC[C@H]3[C@@H](CCC4=CC(=O)CC[C@@]43C)[C@@H]1CC[C@@H]2O [testosterone]
Aqueous media
  Solubility of testosterone achievable in aqueous media: < 0.3 mg/g
Single component lipidic vehicles, max.
  Solubility of testosterone achievable in single component lipidic vehicles alone: < 10 mg/g
